From US20240294534A1, “IMIDAZOTRIAZINE DERIVATIVES AS IL-17 MODULATORS” (UCB BIOPHARMA SRL, priority 2021, published 2024) come the findings set out here.

Each structure is given as a SMILES string.

In the experiment the target is T1, IL-17A (Homo sapiens, UniProt Q16552).
T1 sequence (Q16552 24-155): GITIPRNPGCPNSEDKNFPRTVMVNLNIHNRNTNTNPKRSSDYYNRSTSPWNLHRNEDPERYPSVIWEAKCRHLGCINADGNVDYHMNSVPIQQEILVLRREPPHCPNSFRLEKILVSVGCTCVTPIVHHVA
Put plainly: Inhibition of IL-17A induced IL-6 release from dermal fibroblast cell line (HDF cell line assay). The experiment is classed as cell-based. The conditions noted are these: human dermal fibroblasts stimulated with IL-17A (50 pM) + TNF-α (25 pM); IL-6 measured by HTRF; pIC50 = -log10[IC50], IC50 molar. The source says: Inhibition of IL-17A Induced IL-6 Release from Dermal Fibroblast Cell Line
The purpose of this assay is to test the neutralising ability to IL-17 proteins, in a human primary cell system. Stimulation of normal human dermal fibroblasts (HDF) with IL-17 alone produces only a very weak signal but in combination with certain other cytokines, such as TNFα, a synergistic effect can be seen in the production of inflammatory cytokines, i.e. IL-6.
HDFs were stimulated with IL-17A (50 pM) in combination with TNF-α (25 pM). The resultant IL-6 response was then measured using a homogenous time-resolved FRET kit from Cisbio. The kit utilises two monoclonal antibodies, one labelled with Eu-Cryptate (Donor) and the second with d2 or XL665 (Acceptor). The intensity of the signal is proportional to the concentration of IL-6 present in the sample (Ratio is calculated by 665/620×104).
The ability of a compound to inhibit IL-17 induced IL-6 release from human dermal fibroblasts is measured in this assay.
HDF cells (Sigma #106-05n) were cultured in complete media (DMEM+10% FCS+2 mM L-glutamine) and maintained in a tissue culture flask using standard techniques. Cells were harvested from the tissue culture flask on the morning of the assay using TrypLE (Invitrogen #12605036). The TrypLE was neutralised using complete medium (45 mL) and the cells were centrifuged at 300×g for 3 minutes. The cells were re-suspended in complete media (5 mL) counted and adjusted to a concentration of 3.125×10^4 cells/mL before being added to the 384 well assay plate (Corning #3701) at 40 μL per well. The cells were left for a minimum of three hours, at 37° C./5% CO2, to adhere to the plate.
Compounds were serially diluted in DMSO before receiving an aqueous dilution into a 384 well dilution plate (Greiner #781281), where 5 μL from the titration plate was transferred to 45 μL of complete media and mixed to give a solution containing 10% DMSO.
Mixtures of TNFα and IL-17 cytokine were prepared in complete media to final concentrations of TNFα 25 pM/IL-17A 50 pM, then 30 μL of the solution was added to a 384 well reagent plate (Greiner #781281).
10 μL from the aqueous dilution plate was transferred to the reagent plate containing 30 μL of the diluted cytokines, to give a 2.5% DMSO solution. The compounds were incubated with the cytokine mixtures for 5 h at 37° C. After the incubation, 10 μL was transferred to the assay plate, to give a 0.5% DMSO solution, then incubated for 18-20 h at 37° C./5% CO2.
From the Cisbio IL-6 FRET kit (Cisbio #62IL6PEB) europium cryptate and Alexa 665 were diluted in reconstitution buffer and mixed 1:1, as per kit insert. To a white low volume 384 well plate (Greiner #784075) were added FRET reagents (10 μL), then supernatant (10 μL) was transferred from the assay plate to Greiner reagent plate. The mixture was incubated at room temperature for 3 h with gentle shaking (<400 rpm) before being read on a Synergy Neo 2 plate reader (Excitation: 330 nm; Emission: […]).

With `Cc1nonc1C(=O)N[C@H](c1cn2ncc([C@@H]3C[C@@](O)(C(F)(F)F)CCN3C(=O)[C@@H]3CCC(F)(F)CO3)nc2n1)C1CCC(F)(F)CC1` (single isomer, unassigned) [Example 18], the half-maximal inhibitory concentration (IC50) is 2.51 nM. With `Cc1nonc1C(=O)N[C@H](c1cn2ncc([C@H]3C[C@@](O)(C(F)(F)F)CCN3C(=O)C34CC(F)(C3)C4)nc2n1)C1CCC(F)(F)CC1` (single isomer, unassigned) [Example 33] the figure was 126 nM; with `Cc1nonc1C(=O)NC(c1cn2ncc(C3COCCN3C(=O)C3CCC(F)(F)CO3)nc2n1)C1CCC(F)(F)CC1` (single isomer, unassigned) [Example 8], 126 nM. As for `Cc1nonc1C(=O)N[C@H](c1cn2ncc([C@@H]3C[C@@](O)(C(F)F)CCN3C(=O)[C@@H]3CCC(F)(F)CO3)nc2n1)C1CCC(F)(F)CC1` (single isomer, unassigned) [Example 22], the figure is 6.31 nM; as for `O=C([C@@H]1CCC(F)(F)CO1)N1CC[C@](O)(C(F)(F)F)C[C@H]1c1cnn2cc([C@@H](NC(=O)C3(F)CC3)C3CCC(F)(F)CC3)nc2n1` (single isomer, unassigned) [Example 20], 15.8 nM. As for `CC(C)n1ncnc1C(=O)N[C@H](c1cn2ncc([C@@H]3C[C@@](O)(C(F)F)CCN3C(=O)[C@@H]3CCC(F)(F)CO3)nc2n1)C1CCC(F)(F)CC1` (single isomer, unassigned) [Example 48], the figure is 6.31 nM; as for `Cc1nonc1C(=O)N[C@H](c1cn2ncc([C@@H]3C[C@@](O)(C(F)(F)F)CCN3C(=O)C34CC(F)(C3)C4)nc2n1)C(C1CC1)C1CC1` (single isomer, unassigned) [Example 1], 7.94 nM; as for `Cc1nonc1C(=O)N[C@H](c1cn2ncc([C@H]3C[C@](O)(C(F)(F)F)CCN3C(=O)[C@@H]3CCC(F)(F)CO3)nc2n1)C1CCC(F)(F)CC1` (single isomer, unassigned) [Example 19], 100 nM.

For `Cc1nonc1C(=O)N[C@H](c1cn2ncc([C@@H]3COCCN3C(=O)[C@@H]3CCC(F)(F)CO3)nc2n1)[C@H]1CC[C@H](C(F)(F)F)CC1` (single isomer, unassigned) [Example 25], the IC50 is 316 nM. For the molecule `O=C(N[C@H](c1cn2ncc(C3CS(=O)(=O)CCN3C(=O)C34CC(F)(C3)C4)nc2n1)[C@H]1CC[C@H](C(F)(F)F)CC1)OCc1ccccc1` (stereo partly drawn) [Example 13, Benzyl N—[(S)-{3-[4-(3-fluorobicyclo[1.1.1]pentane-1-carbonyl)-1,1-dioxo-1,4-thiazinan-3-yl]imidazo[1,2-b][1,2,4]triazin-6-yl}[4-(trifluoromethyl)cyclohexyl]methyl]carbamate], the IC50 is 50.1 nM. As for `Cc1nonc1C(=O)N[C@H](c1cn2ncc([C@H]3C[C@@H](O)CCN3C(=O)[C@@H]3CCC(F)(F)CO3)nc2n1)C1CCC(F)(F)CC1` (single isomer, unassigned) [Example 43], the figure is 25.1 nM; as for `Cc1nonc1C(=O)N[C@H](c1cn2ncc(C3(C(=O)NCC(C)(F)F)CCN(C4COC4)CC3)nc2n1)C1CCC(F)(F)CC1` [Example 56, N—[(S)-(4,4-Difluorocyclohexyl){3-[4-(2,2-difluoropropylcarbamoyl)-1-(oxetan-3-yl)-piperidin-4-yl]imidazo[1,2-b][1,2,4]triazin-6-yl}methyl]-4-methyl-1,2,5-oxadiazole-3-carboxamide], 15.8 nM. As for `Cc1nonc1C(=O)N[C@H](c1cn2ncc([C@@H]3COCCN3C(=O)[C@@H]3CCC(F)(F)CO3)nc2n1)C(C1CC1)C1CC1` (single isomer, unassigned) [Example 5], the figure is 3.98 nM. As for `Cc1nonc1C(=O)N[C@H](c1cn2ncc([C@@H]3C[C@](O)(C(F)F)CCN3C(=O)C34CC(F)(C3)C4)nc2n1)C1CCC(F)(F)CC1` (single isomer, unassigned) [Example 28], the figure is 39.8 nM.

For `Cc1nonc1C(=O)N[C@H](c1cn2ncc([C@@H]3C[C@](O)(C(F)F)CCN3C(=O)[C@@H]3CCC(F)(F)CO3)nc2n1)C1CCC(F)(F)CC1` (single isomer, unassigned) [Example 30], the half-inhibitory concentration (IC50) was 12.6 nM. As for `Cc1nonc1C(=O)N[C@H](c1cn2ncc([C@H]3C[C@](O)(C(F)F)CCN3C(=O)[C@@H]3CCC(F)(F)CO3)nc2n1)C1CCC(F)(F)CC1` (single isomer, unassigned) [Example 23], the figure is 158 nM. `Cc1nonc1C(=O)N[C@H](c1cn2ncc([C@H]3C[C@](C)(O)CCN3C(=O)C34CC(F)(C3)C4)nc2n1)C1CCC(F)(F)CC1` (single isomer, unassigned) [Example 41]: the IC50 was 794 nM.

In the case of `Cc1nonc1C(=O)N[C@H](c1cn2ncc([C@H]3COCCN3C(=O)[C@@H]3CCC(F)(F)CO3)nc2n1)C(C1CC1)C1CC1` (single isomer, unassigned) [Example 6], the IC50 is 100 nM. With `O=C(N[C@H](c1cn2ncc([C@H]3C[C@](O)(C(F)(F)F)CCN3C(=O)C34CC(F)(C3)C4)nc2n1)C1CCC(F)(F)CC1)C1(F)CC1` (single isomer, unassigned) [Example 12] the figure was 7940 nM; with `Cn1nccc1C(=O)N[C@H](c1cn2ncc([C@H]3C[C@](O)(C(F)F)CCN3C(=O)[C@@H]3CCC(F)(F)CO3)nc2n1)C1CCC(F)(F)CC1` (single isomer, unassigned) [Example 47], 631 nM. With `Cc1nonc1C(=O)N[C@H](c1cn2ncc([C@@H]3COCCN3C(=O)C34CC(F)(C3)C4)nc2n1)C1CCC(F)(F)CC1` (single isomer, unassigned) [Example 3] the figure was 79.4 nM.

`Cc1nonc1C(=O)N[C@H](c1cn2ncc([C@H]3C[C@@](C)(O)CCN3C(=O)[C@@H]3CCC(F)(F)CO3)nc2n1)C1CCC(F)(F)CC1` (single isomer, unassigned) [Example 35]: the half-inhibitory concentration (IC50) was 126 nM. Turning to `Cc1nonc1C(=O)N[C@H](c1cn2ncc([C@@H]3C[C@@H](O)CCN3C(=O)[C@@H]3CCC(F)(F)CO3)nc2n1)C1CCC(F)(F)CC1` (single isomer, unassigned) [Example 44], the concentration for half-maximal inhibition (IC50) is 126 nM. With `Cc1nonc1C(=O)N[C@H](c1cn2ncc([C@@H]3C[C@@](C)(O)CCN3C(=O)C34CC(F)(C3)C4)nc2n1)C1CCC(F)(F)CC1` (single isomer, unassigned) [Example 40] the figure was 79.4 nM. With `CC(C)n1ncnc1C(=O)N[C@H](c1cn2ncc([C@H]3C[C@@H](O)CCN3C(=O)[C@@H]3CCC(F)(F)CO3)nc2n1)C1CCC(F)(F)CC1` (single isomer, unassigned) [Example 50] the figure was 12.6 nM; with `Cc1nonc1C(=O)N[C@H](c1cn2ncc([C@H]3C[C@@](O)(C(F)F)CCN3C(=O)[C@@H]3CCC(F)(F)CO3)nc2n1)C1CCC(F)(F)CC1` (single isomer, unassigned) [Example 31], 15.8 nM.

On to `Cc1nonc1C(=O)N[C@H](c1cn2ncc(C3(C(=O)N4CC(C(F)(F)F)C4)CCN(C4COC4)CC3)nc2n1)C1CCC(F)(F)CC1` [Example 55, N—[(S)-(4,4-Difluorocyclohexyl)(3-{1-(oxetan-3-yl)-4-[3-(trifluoromethyl)azetidine-1-carbonyl]piperidin-4-yl}imidazo[1,2-b][1,2,4]triazin-6-yl)methyl]-4-methyl-1,2,5-oxadiazole-3-carboxamide], for which the IC50 was 63.1 nM.
